The source of these data is patent publication US20030139372A1, “Modulation of bone formation” (priority 2000, published 2003).

Each structure is given as a SMILES string. “Also recorded” adds a separate entry of the source.

One experiment relates to bone forming cells. Nature of the experiment: Bone anabolic activity from CFU-f and NASP cell assays combined with neonatal rat calvarial organ cultures. It is filed as cell-based. To be noted: for bone anabolic activity: useful activity taken as equivalent to that of PGE2. From the text: The main reason for the lack of understanding of the cellular basis for the actions of bone anabolic drugs is that there exists, at present, no single in vitro assay which responds to these drugs in an appropriate manner. However, we have now developed a number of assays which, when used in combination with neonatal rat calvarial organ cultures, are able to predict bone anabolic agents.
In the accompanying Figures, which are purely illustrative and not limiting on the present invention, the effect of certain compounds is shown on alkaline phosphatase activity, calcium uptake and collagen synthesis, respectively, with the final bar showing the cumulative and determinative effect of the compound on bone anabolism:
As noted above, there is no single assay that can reliably report on bone anabolic activity. Individual assays can identify certain putative bone anabolic agents but as there are many bone anabolic agents which act by a number of mechanisms, many remain unidentified. By using the CFU-f and the NASP cell assays in combination with neonatal rat calvarial organ cultures, bone anabolic agents can be reliably identified as the false negatives are reduced to a minimum.

Experiment [1] deals with whole bone marrow cells (BMC). In words: Fibroblastic colony forming unit (CFU-f) cultures of whole bone marrow cells. It counts as cell-based, rat. The conditions noted are these: for colony numbers: CFU-f colonies. How it is done:
Whole bone marrow cells (BMC's) were obtained from the tibias and femurs of 125 g male Wistar rats. The bones were removed under aseptic conditions and all soft adherent tissue removed. An end of each bone was removed, a hole made in the opposing end with an 18 gauge syringe needle, and the cells isolated centrifugally [Dobson K. R., et al., Calcif tissue Int., 65:411-413 (1999)]. The cells were dispersed in 10 ml DMEM (containing 12% FCS, 1×10^−8 M dexamethasone and […] ascorbic acid) by repeated pipetting, and a single-cell suspension achieved by forcefully expelling the cells through a 20 gauge syringe needle. The cells were then used in the protocols described below. To analyse the numbers of fibroblastic-colony forming units (CFU-f) in either whole BMC or high density non-adherent stromal precursor (NASP) cell cultures, 10^6 nucleated BMC, or the non-adherent cells from the high density NASP cellcultures, were plated out on 55 cm^2 petri dishes in DMEM containing; 12% FCS, 1×10^−8 M dexamethasone and 50 μg/ml ascorbic acid. In the case of the CFU-f analysis of whole BMC, the test agents were added once at the beginning of the culture period. In the case of NASP cell cultures, the test agents were added at the beginning of the NASP cell cultures themselves and the CFU-f assay only used to assess the number of CFU-f generated during the NASP cell culture. The medium was changed after 5 days and, thereafter, twice weekly. The cultures were maintained for 18 days, after which the cells were washed with PBS and fixed, by the addition of cold ethanol. After fixation, the cultures were stained for alkaline phosphatase (APase) positive, calcium positive, collagen positive and total colonies as described by Scutt & Bertram (J. Bone and Mineral Res. 10:474-489, 1995). The cultures were then photographed using a digital camera and the APase positive, calcium positive, collagen positive and total colonies quantitated using Bioimage “Intelligent Quantifier” image analysis software [Dobson K., et al., A cost effective method for the automatic quantitative analysis of fibroblastic-colony forming units with osteoblastic potential. Calcif. Tissue Int. 65:166-172 (1999)].

Experiment [2] relates to non-adherent stromal precursor (NASP) cells. In words: High-density non-adherent stromal precursor (NASP) cell cultures. It counts as cell-based, rat. The conditions noted are these: 4 day NASP culture then CFU-f readout; FIG. 1. How it is done:
Whole bone marrow cells (BMC's) were obtained from the tibias and femurs of 125 g male Wistar rats. The bones were removed under aseptic conditions and all soft adherent tissue removed. An end of each bone was removed, a hole made in the opposing end with an 18 gauge syringe needle, and the cells isolated centrifugally [Dobson K. R., et al., Calcif tissue Int., 65:411-413 (1999)]. The cells were dispersed in 10 ml DMEM (containing 12% FCS, 1×10^−8 M dexamethasone and […] ascorbic acid) by repeated pipetting, and a single-cell suspension achieved by forcefully expelling the cells through a 20 gauge syringe needle. The cells were then used in the protocols described below. […]
After fixation, the cultures were stained for alkaline phosphatase (APase) positive, calcium positive, collagen positive and total colonies as described by Scutt & Bertram (J. Bone and Mineral Res. 10:474-489, 1995). The cultures were then photographed using a digital camera and the APase positive, calcium positive, collagen positive and total colonies quantitated using Bioimage “Intelligent Quantifier” image analysis software [Dobson K., et al., A cost effective method for the automatic quantitative analysis of fibroblastic-colony forming units with osteoblastic potential. […]

The next experiment concerns neonatal rat calvariae. In words: Collagen synthesis in organ culture of neonatal rat calvariae. The conditions noted are these: [3H]proline incorporation into collagenase-digestible protein; FIG. 1. It counts as cell-based. Here is the method:
One day old rat pups were killed and the calvariae (skull cases) dissected out. The calvariae were then cut along the sagittal suture to give two hemicalvariae per foetus. Each bone was cultured in 2 ml DMEM containing 1 mg/ml BSA, 50 μg/ml ascorbic acid, 60 μg/ml penicillin, and 50 μg/ml streptomycin and 1×10^−8M dexamethasone in 35 mm tissue culture wells. After 24 h, the medium was replaced with fresh medium, any test agent added, and the tissue cultured for a further 48 h.
In this assay, each bone was pulsed with 10 μCi of [^3H]proline for 24 h at the end of the culture period. The bones were washed successively in trichloroacetic acid (TCA), acetone, and ether, and then dried. The incorporation of [^3H]proline into collagenase-digestible protein (CDP) was determined using purified bacterial collagenase by the method of Peterkofsky B. and Diegelmann R. (Biochemistry, 6: 988-994, 1971) and expressed as dpm.

`CCCCC/C=C\C/C=C\CCCCCCCC(=O)O` [Linoleic acid, linoleic acid]: the bone anabolic activity result with bone forming cells is given as “showed bone anabolic activity”.

On to `CCCCCCCCCCCCCCCC(=O)OC` [Methyl palmitate, methyl palmitate], for which, in experiment [1], the colony numbers entry was “produced stimulation”.

In the case of `CCCCC[C@H](O)/C=C/[C@H]1C=CC(=O)[C@@H]1CCCCCCC(=O)O` [PGA1], the colony numbers entry in experiment [1] is recorded as “significant dose dependent increase”. The “response in CFU-f assay” value in experiment [1] (whole BMC, 18 day culture, FIG. 1) is given as “positive response”. Moreover, in experiment [2], the “response in NASP cell assay” value is reported as “positive response”. In the experiment with neonatal rat calvariae, the “response in calvarial collagen synthesis assay” value is on record as “positive response”. The “bone anabolic activity compared with PGE2” value with bone forming cells (magnitude relative to PGE2) was “comparable with that produced by PGE2; also recorded: at least as good as that of PGE2”.

Turning to `CCCCC[C@H](O)/C=C/[C@H]1C=CC(=O)[C@@H]1C/C=C\CCCC(=O)O` [PGA2], in the experiment with bone forming cells, the bone anabolic activity result is on record as “useful activity”.

With `CC#CCC(C)[C@H](O)/C=C/[C@@H]1[C@H]2C/C(=C/CCCC(=O)O)C[C@H]2C[C@H]1O` (some centres unmarked) [iloprost], the colony numbers entry in experiment [1] is listed as “stimulation comparable with that of PGA1”.

In the case of `CCCCCCCC/C=C\CCCCCCCC(=O)O` [oleic acid], the bone anabolic activity entry in the experiment with bone forming cells is given as “useful activity”.

Turning to `c1cc2c(cc1[C@H]1OC[C@H]3[C@@H]1CO[C@@H]3c1ccc3c(c1)OCO3)OCO2` [sesamin], the bone anabolic activity result in the experiment on bone forming cells was “useful activity”.
